In the CheMixHub viscosity set:

Experiment: xn = mol fraction of the nth substance listed

Clc1ccccc1 + C=C(C)C(=O)OC
303.15 K, 101 kPa
Conditions | viscosity [mPa·s]
x2 = 0.099 | 0.6943
x2 = 0.1971 | 0.6738
x2 = 0.3987 | 0.6345
x2 = 0.4982 | 0.6147
x2 = 0.6984 | 0.5743
x2 = 0.7989 | 0.5538
x2 = 0.8987 | 0.5349

Clc1cccc2ccccc12 + C=Cc1ccccc1
viscosity [mPa·s], 101.33 kPa
Conditions | x2 = 0.1076 | x2 = 0.2005 | x2 = 0.301 | x2 = 0.4032 | x2 = 0.5003 | x2 = 0.6015 | x2 = 0.684 | x2 = 0.7992 | x2 = 0.9033
298.15 K | 2.356 | 2.07 | 1.778 | 1.549 | 1.379 | 1.216 | 1.108 | 0.9675 | 0.8331
303.15 K | 2.103 | 1.864 | 1.617 | 1.412 | 1.259 | 1.115 | 1.013 | 0.91 | 0.8013
308.15 K | 1.884 | 1.677 | 1.47 | 1.283 | 1.152 | 1.036 | 0.9455 | 0.8446 | 0.7413

CCc1ccccc1 + CC1COC(=O)O1
viscosity [mPa·s], 101 kPa
Conditions | 298.15 K | 308.15 K
x2 = 0.0294 | 0.6462 | 0.5585
x2 = 0.042 | 0.6512 | 0.5634
x2 = 0.0729 | 0.6609 | 0.5767
x2 = 0.0821 | 0.6655 | 0.5811
x2 = 0.1013 | 0.6735 | 0.5908
x2 = 0.2023 | 0.7164 | 0.6552
x2 = 0.3008 | 0.8062 | 0.7411
x2 = 0.4012 | 0.9344 | 0.8533
x2 = 0.5001 | 1.098 | 0.9894
x2 = 0.6001 | 1.302 | 1.154
x2 = 0.7001 | 1.544 | 1.345
x2 = 0.8009 | 1.827 | 1.567
x2 = 0.8992 | 2.14 | 1.811
